Assay [1] addresses T1, DDB1DB/DCAF15 and RBM39 R1R2 complex (Homo sapiens, UniProt Q14498+Q66K64).
T1 construct: Amino acids 150 to 331 of RBM39 were cloned into pGEX4T3; GST (from vector pGEX4T3); TEV cleavage site (N); made in house; host or cells: DDB1DB/His-DCAF15: baculovirus/Sf9 co-expression; RBM39 R1R2: E. coli (pGEX4T3)
Description: DCAF15 RBM39 Complex Formation Assay (FRET). As to conditions: FRET ratio Em 665/Em 615, incubated overnight at 4° C. The class given is binding. Put shortly: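 Ternary complex formation read by TR-FRET (Em 665/615, excitation 340 nm) after overnight incubation at 4° C of 20 nM baculovirus DDB1DB/His-DCAF15 and 50 nM E. coli RBM39 RRM1-RRM2 FLAG fragment with 14-point, 3-fold compound dilutions from 1 μM; EC50 from 4-parameter fit.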

The test system of assay [2] is HCT116 human colorectal carcinoma cells. The experiment in a line: CellTiter-Glo Luminescent Cell Viability Assay. As to conditions: HCT-116, 72 h, 3 days. The class given is cell-based. In short, it runs like this:
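HCT116 cells were exposed for 3 days to compound in triplicate at final concentrations of 5 to 0.0002 […] (1:3 dilutions). Viability was read by CellTiter-Glo luminescence, and IC50 values were calculated.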
Background: Cellular ATP, detected with luciferase, serves as a proxy for viable cell number.

Broadly, the IC50 is the concentration at which inhibition is half-maximal. As a reminder, the EC50 is the concentration giving half of the maximal effect.

Structures are written as SMILES.

T1 sequence (Q66K64 whole entry, the tested form may be a part): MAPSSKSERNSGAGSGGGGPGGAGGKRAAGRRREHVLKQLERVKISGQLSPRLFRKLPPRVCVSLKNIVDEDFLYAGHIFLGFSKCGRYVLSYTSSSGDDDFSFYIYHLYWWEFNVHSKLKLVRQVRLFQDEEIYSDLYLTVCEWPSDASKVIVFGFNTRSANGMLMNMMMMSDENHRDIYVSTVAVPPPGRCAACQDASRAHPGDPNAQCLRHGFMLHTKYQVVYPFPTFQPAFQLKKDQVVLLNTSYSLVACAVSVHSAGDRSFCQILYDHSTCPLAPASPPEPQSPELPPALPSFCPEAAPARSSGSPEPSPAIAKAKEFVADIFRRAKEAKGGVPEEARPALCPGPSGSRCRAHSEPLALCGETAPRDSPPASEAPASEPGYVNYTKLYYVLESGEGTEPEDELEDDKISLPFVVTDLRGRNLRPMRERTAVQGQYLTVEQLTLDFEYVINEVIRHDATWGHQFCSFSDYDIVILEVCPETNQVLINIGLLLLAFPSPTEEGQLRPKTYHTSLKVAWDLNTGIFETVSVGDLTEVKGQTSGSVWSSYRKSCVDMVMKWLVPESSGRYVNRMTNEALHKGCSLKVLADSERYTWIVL
T1 sequence (Q14498 150-331): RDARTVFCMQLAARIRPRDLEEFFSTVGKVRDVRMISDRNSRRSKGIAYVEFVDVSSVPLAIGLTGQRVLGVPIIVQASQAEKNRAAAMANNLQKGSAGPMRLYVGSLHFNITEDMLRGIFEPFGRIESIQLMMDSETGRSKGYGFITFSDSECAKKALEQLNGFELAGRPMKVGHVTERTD
T1 sequence (Q16531 with tags, fused parts or gaps DEL396-708 partner): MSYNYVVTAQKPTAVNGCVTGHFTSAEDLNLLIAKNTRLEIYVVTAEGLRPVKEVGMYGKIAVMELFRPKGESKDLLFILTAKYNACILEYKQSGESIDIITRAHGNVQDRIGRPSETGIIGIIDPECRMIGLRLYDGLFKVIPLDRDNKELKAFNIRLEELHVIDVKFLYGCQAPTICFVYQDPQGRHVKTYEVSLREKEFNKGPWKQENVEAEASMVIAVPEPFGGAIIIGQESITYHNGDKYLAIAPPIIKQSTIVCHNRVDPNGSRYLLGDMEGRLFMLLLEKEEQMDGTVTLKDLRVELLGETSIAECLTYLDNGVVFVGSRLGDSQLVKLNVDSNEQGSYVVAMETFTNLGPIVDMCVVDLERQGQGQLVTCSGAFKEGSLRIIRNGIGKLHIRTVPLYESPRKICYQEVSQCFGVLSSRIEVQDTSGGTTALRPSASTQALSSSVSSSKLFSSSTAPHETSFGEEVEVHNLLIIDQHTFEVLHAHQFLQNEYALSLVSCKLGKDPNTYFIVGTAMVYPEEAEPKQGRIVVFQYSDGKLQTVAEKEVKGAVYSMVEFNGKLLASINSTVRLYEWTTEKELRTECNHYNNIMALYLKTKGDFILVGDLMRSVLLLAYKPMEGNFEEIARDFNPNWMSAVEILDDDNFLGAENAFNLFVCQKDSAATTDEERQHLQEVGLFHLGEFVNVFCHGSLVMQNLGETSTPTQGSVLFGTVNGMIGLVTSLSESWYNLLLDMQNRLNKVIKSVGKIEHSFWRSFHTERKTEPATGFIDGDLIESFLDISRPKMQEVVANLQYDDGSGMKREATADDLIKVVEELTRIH

As for `Cn1cc(S(=O)(=O)Nc2ccc(C(F)(F)F)c3cc[nH]c23)cn1` [Compound 96, 1-methyl-N-[4-(trifluoromethyl)-1H-indol-7-yl]pyrazole-4-sulfonamide], the IC50 in assay [1] was 250 to 1000 nM. Besides, in assay [2], the EC50 was above 1000 nM.
The matching figures for `Cn1cc(S(=O)(=O)Nc2ccc(C(F)(F)F)c3c(Cl)c[nH]c23)cn1` [Compound 97, N-[3-chloro-4-(trifluoromethyl)-1H-indol-7-yl]-1-methyl-pyrazole-4-sulfonamide]: below 250 nM and above 1000 nM.
Taken in the same sequence, the figures for `Cc1ccc(NS(=O)(=O)c2cnn(CC(F)F)c2)c2[nH]cc(Cl)c12` [Compound 98, N-(3-chloro-4-methyl-1H-indol-7-yl)-1-(2,2-difluoroethyl)pyrazole-4-sulfonamide] were below 250 nM and below 250 nM.
For the compound `Cc1ccc(NS(=O)(=O)c2cnn(S(=O)(=O)CF)c2)c2[nH]cc(C#N)c12` [Compound 100, N-(3-cyano-4-methyl-1H-indol-7-yl)-1-(fluoromethylsulfonyl)pyrazole-4-sulfonamide], the IC50 in assay [1] is below 250 nM. For the same compound, in assay [2], the EC50 was in the range of 250 to 1000 nM.
On to `Cc1ccc(NS(=O)(=O)c2cnn(S(=O)(=O)c3ccccc3)c2)c2[nH]cc(C#N)c12` [Compound 101, 1-(benzenesulfonyl)-N-(3-cyano-4-methyl-1H-indol-7-yl)pyrazole-4-sulfonamide], for which, in assay [1], the concentration for half-maximal inhibition (IC50) was below 250 nM. In addition, the EC50 in assay [2] lay within 250 to 1000 nM.
Take `CCn1ncc(S(=O)(=O)Nc2ccc(C)c3c(C#N)c[nH]c23)c1F` [Compound 102, N-(3-Cyano-4-methyl-1H-indol-7-yl)-1-ethyl-5-fluoro-pyrazole-4-sulfonamide]: in assay [1], the IC50 was below 250 nM. Also, the EC50 in assay [2] is below 250 nM.
Turning to `O=S(=O)(Nc1ccc(C(F)(F)F)c2c(Cl)c[nH]c12)c1cnn(CC(F)F)c1` [Compound 103, N-[3-chloro-4-(trifluoromethyl)-1H-indol-7-yl]-1-(2,2-difluoroethyl)pyrazole-4-sulfonamide], the IC50 in assay [1] is below 250 nM. Further, the EC50 in assay [2] was above 1000 nM.
The matching figures for `N#Cc1c[nH]c2c(NS(=O)(=O)c3cnn(CC(F)F)c3)ccc(C(F)(F)F)c12` [Compound 104, N-[3-cyano-4-(trifluoromethyl)-1H-indol-7-yl]-1-(2,2-difluoroethyl)pyrazole-4-sulfonamide]: below 250 nM and 250 to 1000 nM.
The matching figures for `Cn1cc(S(=O)(=O)Nc2ccc(C(F)(F)F)c3c(C#N)c[nH]c23)cn1` [Compound 105, N-[3-cyano-4-(trifluoromethyl)-1H-indol-7-yl]-1-methyl-pyrazole-4-sulfonamide]: below 250 nM and 250 to 1000 nM.
The matching figures for `Cc1ccc(NS(=O)(=O)c2cnn(CC3(CO)COC3)c2)c2[nH]cc(C#N)c12` [Compound 106, N-(3-cyano-4-methyl-1H-indol-7-yl)-1-[[3-(hydroxymethyl)oxetan-3-yl]methyl]pyrazole-4-sulfonamide]: below 250 nM and 250 to 1000 nM.
In the case of `Cc1ccc(NS(=O)(=O)c2cnn(C3(C)COC3)c2)c2[nH]cc(C#N)c12` [Compound 107, N-(3-cyano-4-methyl-1H-indol-7-yl)-1-(3-methyloxetan-3-yl)pyrazole-4-sulfonamide], the IC50 in assay [1] was below 250 nM. Further, in assay [2], the EC50 was below 250 nM.
In the case of `Cc1ccc(NS(=O)(=O)c2cnn(CC(C)(C)O)c2)c2[nH]cc(C#N)c12` [Compound 108, N-(3-Cyano-4-methyl-1H-indol-7-yl)-1-(2-hydroxy-2-methyl-propyl)pyrazole-4-sulfonamide], the IC50 in assay [1] was below 250 nM. Also, the 50% effective concentration (EC50) in assay [2] was 250 to 1000 nM.
Regarding `Cc1ccc(NS(=O)(=O)c2cnn(C3CC(F)(F)C3)c2)c2[nH]cc(C#N)c12` [Compound 109, N-(3-cyano-4-methyl-1H-indol-7-yl)-1-(3,3-difluorocyclobutyl)pyrazole-4-sulfonamide], the half-inhibitory concentration (IC50) in assay [1] is below 250 nM. For the same compound, in assay [2], the EC50 fell in the range of 250 to 1000 nM.
`[2H]C([2H])([2H])n1cc(S(=O)(=O)Nc2ccc(C)c3c(C#N)c[nH]c23)cn1` [Compound 110, N-(3-Cyano-4-methyl-1H-indol-7-yl)-1-(trideuteriomethyl)pyrazole-4-sulfonamide]: the IC50 in assay [1] is below 250 nM. Also, the EC50 in assay [2] was in the range of 250 to 1000 nM.
Taken in the same sequence, the figures for `Cc1ccc(NS(=O)(=O)c2cnn(C3CC(F)C3)c2)c2[nH]cc(C#N)c12` (centres unmarked) [Compound 111, N-(3-cyano-4-methyl-1H-indol-7-yl)-1-(3-fluorocyclobutyl)pyrazole-4-sulfonamide] were below 250 nM and 250 to 1000 nM.
Taken in the same sequence, the figures for `Cc1ccc(NS(=O)(=O)c2cnn(C)c2F)c2[nH]cc(C#N)c12` [Compound 112, N-(3-cyano-4-methyl-1H-indol-7-yl)-5-fluoro-1-methyl-pyrazole-4-sulfonamide] were below 250 nM and 250 to 1000 nM.
Taken in the same sequence, the figures for `Cc1ccc(NS(=O)(=O)c2cnn(C)c2C)c2[nH]cc(C#N)c12` [Compound 113, N-(3-cyano-4-methyl-1H-indol-7-yl)-1,5-dimethyl-pyrazole-4-sulfonamide] were below 250 nM and below 250 nM.
As to `Cc1nn(C)cc1S(=O)(=O)Nc1ccc(C)c2c(C#N)c[nH]c12` [Compound 114, N-(3-cyano-4-methyl-1H-indol-7-yl)-1,3-dimethyl-pyrazole-4-sulfonamide], in assay [1], the IC50 was below 250 nM. Further, the EC50 in assay [2] is 250 to 1000 nM.
With `CC1(n2cc(S(=O)(=O)Nc3ccc(Cl)c4c(Cl)c[nH]c34)cn2)COC1` [Compound 115, N-(3,4-Dichloro-1H-indol-7-yl)-1-(3-methyloxetan-3-yl)pyrazole-4-sulfonamide], the 50% inhibitory concentration (IC50) in assay [1] is below 250 nM. Further, the EC50 in assay [2] was below 250 nM.
Turning to `Cc1ccc(NS(=O)(=O)c2cnn(C3(CO)COC3)c2)c2[nH]cc(C#N)c12` [Compound 116, N-(3-cyano-4-methyl-1H-indol-7-yl)-1-[3-(hydroxymethyl)oxetan-3-yl]pyrazole-4-sulfonamide], in assay [1], the IC50 was below 250 nM. The EC50 in assay [2] was 250 to 1000 nM.
Taken in the same sequence, the figures for `Cc1ccc(NS(=O)(=O)c2cnn(C3(CF)COC3)c2)c2[nH]cc(C#N)c12` [Compound 117, N-(3-cyano-4-methyl-1H-indol-7-yl)-1-[3-(fluoromethyl)oxetan-3-yl]pyrazole-4-sulfonamide] were below 250 nM and below 250 nM.
Taken in the same sequence, the figures for `CC1(n2cc(S(=O)(=O)Nc3ccc(Cl)c4c(C#N)c[nH]c34)cn2)COC1` [Compound 118, N-(4-chloro-3-cyano-1H-indol-7-yl)-1-(3-methyloxetan-3-yl)pyrazole-4-sulfonamide] were below 250 nM and below 250 nM.
`N#Cc1c[nH]c2c(NS(=O)(=O)c3cnn(C(F)F)c3)ccc(Cl)c12` [Compound 119, N-(4-chloro-3-cyano-1H-indol-7-yl)-1-(difluoromethyl)pyrazole-4-sulfonamide]: the IC50 in assay [1] was below 250 nM. In assay [2], the EC50 was below 250 nM.
`N#Cc1c[nH]c2c(NS(=O)(=O)c3cnn(CC(F)(F)F)c3)ccc(Cl)c12` [Compound 120, N-(4-chloro-3-cyano-1H-indol-7-yl)-1-(2,2,2-trifluoroethyl)pyrazole-4-sulfonamide]: the IC50 in assay [1] was below 250 nM. In addition, the EC50 in assay [2] is below 250 nM.
As for `N#Cc1c[nH]c2c(NS(=O)(=O)c3cn[nH]c3)ccc(Cl)c12` [Compound 121, N-(4-chloro-3-cyano-1H-indol-7-yl)-1H-pyrazole-4-sulfonamide], the IC50 in assay [1] is below 250 nM. In assay [2], the EC50 fell in the range of 250 to 1000 nM.

Values taken from patent US20250368627A1, “PYRAZOLESULFONAMIDES AS ANTITUMOR AGENTS” (Peloton Therapeutics, Inc., a fully owned subsidiary of …, priority 2019, published 2025).
